pIC50: −log10 of the molar value.
Target: T1, Angiotensin II Receptor (Bos taurus, UniProt P25104)
T1 construct: The brownish tissue forming the adrenal cortex is scraped off and finely minced with scissors before homogenization; tissue local slaughter house (Maxwell--Cohen); host or cells: beef adrenal cortex, microsomal membranes (100,000×g pellet)
T1 sequence (P25104 1-359): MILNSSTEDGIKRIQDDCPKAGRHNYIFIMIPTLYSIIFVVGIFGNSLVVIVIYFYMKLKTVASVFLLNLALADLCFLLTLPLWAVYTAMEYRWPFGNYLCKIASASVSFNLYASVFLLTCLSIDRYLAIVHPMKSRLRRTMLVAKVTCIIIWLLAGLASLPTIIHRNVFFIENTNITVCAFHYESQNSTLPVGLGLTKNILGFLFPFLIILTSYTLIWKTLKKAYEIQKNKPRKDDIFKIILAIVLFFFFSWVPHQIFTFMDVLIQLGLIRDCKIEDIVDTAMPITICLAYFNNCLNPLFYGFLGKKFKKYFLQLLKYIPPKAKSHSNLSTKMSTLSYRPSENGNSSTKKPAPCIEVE
Assay: Receptor Binding Assay: binding of [125I](Sar1,Ile8)AngII to beef adrenal cortex membranes
Text: [^125 I](Sar^1,Ile^8)AngII, S.A. 2200 Ci/mmole, is purchased from Dupont (NEN®, Boston, Mass.). All unlabeled AngII analogs, Dimethylsulfoxide (DMSO), nucleotides, bovine serum albumin (BSA) are purchased from Sigma Chemical Co., St. Louis, Mo. U.S.A.
Approximately sixteen (16) to twenty (20) beef adrenal glands are processed as follows: fresh adrenal glands received on crushed ice are cleaned of fatty tissues and the tough membranes encapsulating the glands are removed and discarded. The brownish tissue forming the adrenal cortex is scraped off and finely minced with scissors before homogenization. Care is taken to avoid contamination with medullary tissue during dissection. The scraped cortices are suspended in twenty volumes of an ice-cold buffer medium consisting of 10 mM Tris.HCl (pH 7.4 at 22° C.) and containing 1.0 mM EDTA and 0.2M sucrose. Unless otherwise indicated, all subsequent operations are done at 4° C. […] The homogenate is centrifuged first at low speed (3,000×g) for 10 min. […] This P2 pellet is discarded and the liquid phase is carefully decanted off in clean centrifuge tubes and recentrifuged at high speed (100,000×g) for 60 min. The translucent final pellet is harvested and combined in a small volume (20-50.0 ml) of 50.0 mM Tris.HCl buffer, pH 7.2. […] The pelleted membrane is reconstituted in 50.0 mM Tris.HCl buffer containing 0.1 mM of phenylmethylsulfonyl fluoride (PMSF) to give approximately a protein concentration of 2.5 mg per ml of tissue suspension. The membrane preparation is finally aliquoted in 1.0 ml volumes and stored at -70° C. until use in the binding assays.
In competition studies, experimental compounds are diluted in dimethylsulfoxide (DMSO) and added in 20 ul to wells before the introduction of tissue membranes. […] Assays are performed in triplicate. The wells are left undisturbed for 60 min. at room temperature. […] The filters are removed from the filter grid and counted in a Parkard® Cobra Gamma Counter for 1 min. […] The binding data are analyzed by the non-linear interactive "LUNDON-1" program (LUNDON SOFTWARE Inc., Cleveland, Ohio U.S.A.).

Row | Structure (SMILES) | pIC50
1 | CCCCc1nc2ccc([C@@H]3C[C@H](CO)ON3C)cc2c(=O)n1Cc1ccc(-c2ccccc2-c2nn[nH]n2)cc1 (relative stereo) [Example 15, CIS-2-butyl-6-5-(hydroxymethyl)-2-methyl-3-isoxazolidinyl]-3-[[2'-(1H-tetrazol-5[1,1'-biphenyl]-4-yl]methyl]-4(3H)-quinazolinone] | 7.37
2 | CCCCc1nc2ccc([C@H]3C[C@H](CO)ON3C)cc2c(=O)n1Cc1ccc(-c2ccccc2-c2nnn[nH]2)cc1 (relative stereo) [Example 16, TRANS-2-butyl-6-[5-(hydroxymethyl)-2-methyl-3-isoxazolidinyl]-3-[[2'-(1H-tetrazol-5-yl)[1,1'-biphenyl]-4-yl]methyl]-4(3H)-quinazolinone] | 7.21

Source: patent US5294617A, “Angiotensin II receptor blocking 2,3,6 substituted quinazolinones” (American Cyanamid Company, priority 1993, dated 1994)
